Source: US10703746B2, “Mutant IDH1 inhibitors useful for treating cancer” (THE UNITED STATES OF AMERICA, AS REPRESENTED BY THE …, priority 2014, dated 2020)

Experiments:
[1] = molecular target: IDH1 R132H (Homo sapiens, UniProt O75874, R132H); experiment: IDH1 R132H enzymatic assay (NADPH depletion coupled to diaphorase/resazurin); assay type: biochemical
[2] = molecular target: IDH1 R132C (Homo sapiens, UniProt O75874, R132C); experiment: IDH1 R132C enzymatic assay (NADPH depletion coupled to diaphorase/resazurin); assay type: biochemical
How it was run: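 NADPH depletion, read via diaphorase/resazurin coupling, after adding substrate at 0.6 mM α-KG and 0.012 mM NADPH. Beforehand, 0.00032 mg/mL enzyme sat with compound 30 min at room temperature in pH 6.5 potassium phosphate buffer with MgCl2, glycerol and BSA.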

[3] = IDH1 R132H enzymatic inhibition, IC50 class
[4] = IDH1 R132C enzymatic inhibition, IC50 class
[5] = enzymatic inhibition, IDH1 R132H
[6] = enzymatic inhibition, IDH1 R132C

Sequence of IDH1 R132H (O75874 whole entry R132H): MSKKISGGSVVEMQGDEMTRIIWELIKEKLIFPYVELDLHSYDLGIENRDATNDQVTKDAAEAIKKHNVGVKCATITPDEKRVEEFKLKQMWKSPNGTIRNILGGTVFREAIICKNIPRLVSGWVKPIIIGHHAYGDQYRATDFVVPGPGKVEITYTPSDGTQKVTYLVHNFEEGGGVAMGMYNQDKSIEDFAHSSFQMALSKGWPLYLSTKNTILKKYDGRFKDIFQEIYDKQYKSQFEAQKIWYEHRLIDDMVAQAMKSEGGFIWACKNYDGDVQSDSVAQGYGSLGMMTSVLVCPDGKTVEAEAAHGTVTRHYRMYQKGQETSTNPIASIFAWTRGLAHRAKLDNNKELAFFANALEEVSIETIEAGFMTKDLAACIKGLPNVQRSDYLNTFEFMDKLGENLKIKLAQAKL
Sequence of IDH1 R132C (O75874 whole entry R132C): as the sequence (O75874 whole entry R132H) above, with H132C counted along it

Row | IC50 [1, 3] | IC50 [2, 4] | IC50 [1, 5] | IC50 [2, 6] | Compound
1 | < 300 nM | < 300 nM |  |  | CCc1cccc(CC)c1-n1c(CC2CCCC2)c(C(=O)N2CCNCC2)cc(-c2nc(-c3ccc(Cl)cc3)cs2)c1=O [Compound 622]
2 |  |  | < 300 nM | 300 to 1000 nM | CC(C)=Cc1c(C(=O)N2CCNCC2)cc(-c2nc(-c3ccc(Cl)cc3)cs2)c(=O)n1-c1ccccc1C [Compound 437]
3 |  |  | < 300 nM | < 300 nM | COc1ncccc1-n1c(C=C(C)C)c(C(=O)N2CCNCC2)cc(-c2nc(-c3ccc(Cl)cc3)cs2)c1=O [Compound 614]
4 | 300 to 1000 nM | 300 to 1000 nM |  |  | CC1(C)CC(=O)c2cc(-c3nc(-c4ccc(Cl)cc4)cs3)c(=O)n(-c3ccccc3F)c2C1 [Compound 195]
5 | 1000 to 5000 nM | 300 to 1000 nM |  |  | CC1(C)CC(=O)c2cc(-c3nc(-c4ccc(Cl)cc4)cs3)c(=O)n(-c3ccccc3OC(F)(F)F)c2C1 [Compound 9]
6 | 1000 to 5000 nM | 1000 to 5000 nM |  |  | CCc1cccc(CC)c1-n1c(C)c(C(=O)N2CCC(NC)C2)cc(-c2nc(-c3ccc(Cl)cc3)cs2)c1=O (stereo not drawn) [Compound 207]
7 | 1000 to 5000 nM | 300 to 1000 nM |  |  | CCSc1ccccc1-n1c2c(cc(-c3nc(-c4ccc(Cl)cc4)cs3)c1=O)C(=O)CC(C)(C)C2 [Compound 134]
8 | < 300 nM | < 300 nM |  |  | CCOc1ccc(Cl)cc1-n1c(C=C(C)C)c(C(=O)N2CCNCC2)cc(-c2nc(-c3ccc(C(F)(F)F)cc3)cs2)c1=O [Compound 665]
9 |  |  | < 300 nM | < 300 nM | CCc1cccc(CC)c1-n1c(C=C(C)C)c(C(=O)N2CCNCC2)cc(-c2nc(-c3ccc(C(F)F)nc3)cs2)c1=O [Compound 546]
10 | < 300 nM | < 300 nM |  |  | CCOc1ccc(F)cc1-n1c(C=C(C)C)c(C(=O)N2CCNCC2)cc(-c2nc(-c3ccc(C(F)(F)F)cc3)cs2)c1=O [Compound 329]
11 | < 300 nM | < 300 nM |  |  | CCOc1ccc(-c2nc(-c3cc(C(=O)N4CCNCC4)c(CC(C)C)n(-c4c(CC)cccc4CC)c3=O)sc2C)cc1 [Compound 285]
12 | > 20000 nM | 5000 to 20000 nM |  |  | CCc1cccc(CC)c1-n1c2c(cc(-c3nc(-c4ccc(C(=O)O)cc4)cs3)c1=O)C(=O)CC(C)(C)C2 [Compound 162]
13 | 300 to 1000 nM | < 300 nM |  |  | CCc1cccc(CC)c1-n1c(CC(C)C)c(C(=O)N2CCNCC2)cc(-c2nc(-c3ccc(C(F)(F)F)cc3)c(C)s2)c1=O [Compound 210]
14 | < 300 nM | 300 to 1000 nM |  |  | CCc1cccc(CC)c1-n1c(C)c(C(=O)N2CCN[C@@H](CO)C2)cc(-c2nc(-c3ccc(Cl)cc3)cs2)c1=O [Compound 220]
15 | 300 to 1000 nM | 300 to 1000 nM |  |  | CCc1cccc(CC)c1-n1c(C)c(C(=O)NC2CCNCC2)cc(-c2nc(-c3ccc(Cl)cc3)cs2)c1=O [Compound 302]
16 | 5000 to 20000 nM | 5000 to 20000 nM |  |  | CC1(C)CC(=O)c2cc(-c3nc(-c4ccc(Cl)cc4)cs3)c(=O)n(-c3sccc3C(N)=O)c2C1 [Compound 369]
17 | < 300 nM | < 300 nM |  |  | CCc1cccc(F)c1-n1c(C=C(C)C)c(C(=O)N2CCNCC2)cc(-c2nc(-c3ccc(Cl)cc3)cs2)c1=O [Compound 655]
18 | > 20000 nM | > 20000 nM |  |  | COc1ccc(OC)c(-n2c3c(cc(-c4ncc(-c5ccc(Cl)cc5)s4)c2=O)C(=O)CC(C)(C)C3)c1 [Compound 266]
19 |  |  | 300 to 1000 nM | 1000 to 5000 nM | CCc1cccc(CC)c1-n1c(CC(C)C)c(C(=O)N2CCNCC2)cc(-c2nc(-c3ccc(Cl)cc3)c(C(=O)NC)s2)c1=O [Compound 454]
20 | 1000 to 5000 nM | 300 to 1000 nM |  |  | CC1(C)CC(=O)c2cc(-c3nc(-c4ccc(Cl)cc4)cs3)c(=O)n(-c3ccccc3C(C)(C)C)c2C1 [Compound 241]
21 |  |  | 1000 to 5000 nM | 1000 to 5000 nM | CCc1cccc(CC)c1-n1c2c(cc(-c3nc(-c4ccc(Cl)cc4)cs3)c1=O)C(=O)CCC2 [Compound 525]
22 |  |  | < 300 nM | < 300 nM | CCc1cccc(CC)c1-n1c(C=C(C)C)c(C(=O)N2CCCNC(=O)C2)cc(-c2nc(-c3ccc(Cl)cc3)cs2)c1=O [Compound 529]
23 | 1000 to 5000 nM | 1000 to 5000 nM |  |  | COc1ccc(OC)c(-n2c3c(cc(-c4nc(-c5ccc(Cl)cc5)cs4)c2=O)C=CC(C)(C)C3)c1 [Compound 144]
24 | < 300 nM | < 300 nM |  |  | CC(C)=Cc1c(C(=O)N2CCNCC2)cc(-c2nc(-c3ccc(Cl)cc3)cs2)c(=O)n1-c1cc(F)cnc1OC(C)C [Compound 316]
25 |  |  | < 300 nM | 1000 to 5000 nM | COc1ncc(C)cc1-n1c(C=C(C)C)c(C(=O)N2CCNCC2)cc(-c2ccn(-c3ccc(C(F)(F)F)cc3)n2)c1=O [Compound 541]
26 | 300 to 1000 nM | < 300 nM |  |  | CCc1cccc(CC)c1-n1c2c(cc(-c3nc(-c4ccc(Cl)cc4)cs3)c1=O)C(=O)CC(C)(C)C2 [Compound 282]
27 |  |  | < 300 nM | < 300 nM | CCc1cccc(CC)c1-n1c(C=C(C)C)c(C(=O)N2CCNC[C@H]2C)cc(-c2nc(-c3ccc(C(F)(F)F)cc3)cs2)c1=O [Compound 533]

Row | IC50 [1, 3] | IC50 [2, 4] | IC50 [1, 5] | IC50 [2, 6] | Compound
28 | > 20000 nM | 1000 to 5000 nM |  |  | COc1ccc(OC)c(-n2c3c(cc(-c4nc5ccc(Cl)cc5s4)c2=O)C(=O)CC(C)(C)C3)c1 [Compound 149]
29 |  |  | 1000 to 5000 nM | 300 to 1000 nM | CCc1cccc(CC)c1-n1c(C2CCOCC2)c(C(=O)N2CCNCC2)cc(-c2nc(-c3ccc(Cl)cc3)cs2)c1=O [Compound 446]
30 | 1000 to 5000 nM | 1000 to 5000 nM |  |  | CCc1cccc(CC)c1-n1c(C)c(C(=O)NC2CCOCC2)cc(-c2nc(-c3ccc(Cl)cc3)cs2)c1=O [Compound 296]
31 |  |  | > 20000 nM | 1000 to 5000 nM | Cc1nonc1-n1c2c(cc(-c3nc(-c4ccc(Cl)cc4)cs3)c1=O)C(=O)CC(C)(C)C2 [Compound 439]
32 | > 20000 nM | 5000 to 20000 nM |  |  | COc1c(C(=O)O)cccc1-n1c2c(cc(-c3nc(-c4ccc(Cl)cc4)cs3)c1=O)C(=O)CC(C)(C)C2 [Compound 174]
33 | 1000 to 5000 nM | 300 to 1000 nM |  |  | CC1(C)CC(=O)c2cc(-c3nc(-c4ccc(Cl)cc4)cs3)c(=O)n(-c3ccccc3OC3CC3)c2C1 [Compound 25]
34 | 5000 to 20000 nM | 1000 to 5000 nM |  |  | CCc1cccc(CC)c1-n1c(C(C)C)c(C(=O)N2CCN[C@H](C(=O)OC)C2)cc(-c2nc(-c3ccc(Cl)cc3)cs2)c1=O [Compound 247]
35 | 300 to 1000 nM | < 300 nM |  |  | CCc1cccc(CC)c1-n1c2c(cc(-c3nc(-c4ccc(Cl)cc4)c(C)s3)c1=O)C(=O)CC(C)(C)C2 [Compound 251]
36 | < 300 nM | < 300 nM |  |  | COc1ccc(F)cc1-n1c(C=C(C)C)c(C(=O)N2CCNCC2)cc(-c2nc(-c3ccc(Cl)cc3)cs2)c1=O [Compound 630]
37 | < 300 nM | 1000 to 5000 nM |  |  | CCc1cccc(CC)c1-n1c(C=C(C)C)c(C(=O)N2CCNCC2)cc(-c2nn(-c3ccc(Cl)cc3)cc2C)c1=O [Compound 638]
38 | < 300 nM | < 300 nM |  |  | CCc1ccc(C)cc1-n1c(C=C(C)C)c(C(=O)N2CCNCC2)cc(-c2nc(-c3ccc(Cl)cc3)cs2)c1=O [Compound 656]
39 |  |  | < 300 nM | < 300 nM | CCOc1ccc(C)cc1-n1c(C=C(C)C)c(C(=O)N2CCNCC2)cc(-c2nc(-c3ccc(C(F)(F)F)nc3)cs2)c1=O [Compound 420]
40 |  |  | < 300 nM | < 300 nM | COc1ccc(Cl)c(-n2c(C=C(C)C)c(C(=O)N3CCNCC3)cc(-c3nc(-c4ccc(Cl)cc4)cs3)c2=O)c1 [Compound 500]
41 |  |  | < 300 nM | < 300 nM | CCc1cccc(CC)c1-n1c(C=C(C)C)c(C(=O)N2CCN[C@@H](C)C2)cc(-c2nc(-c3ccc(C(F)(F)F)cc3)cs2)c1=O [Compound 425]
42 | > 20000 nM | 5000 to 20000 nM |  |  | CC1(C)CC(=O)c2cc(-c3nc(-c4ccc(Cl)cc4)cs3)c(=O)n(C3CCCCC3)c2C1 [Compound 216]
43 |  |  | < 300 nM | 300 to 1000 nM | COc1cccc(OC)c1-n1c(CC(C)C)c(C(=O)N2CCNCC2)cc(-c2nc(-c3ccc(Cl)cc3)cs2)c1=O [Compound 461]
44 | < 300 nM | < 300 nM |  |  | CCc1cccc(CC)c1-n1c(CC(C)C)c(C(=O)N2CCNCC2)cc(-c2nc(-c3ccc(Cl)cc3)c(C)s2)c1=O [Compound 82]
45 |  |  | < 300 nM | < 300 nM | CCc1cccc(CC)c1-n1c(CC(C)C)c(C(=O)N2CCNCC2)cc(-c2nc(-c3ccc(C(F)F)cc3)c(C)s2)c1=O [Compound 517]
46 | 300 to 1000 nM | < 300 nM |  |  | CCc1cccc(CC)c1-n1c(CC(C)C)c(C(=O)N2CCNC(C)C2)cc(-c2nc(-c3ccc(Cl)cc3)cs2)c1=O (stereo not drawn) [Compound 305]
47 | 1000 to 5000 nM | 1000 to 5000 nM |  |  | CCc1cccc(CC)c1-n1c2c(cc(-c3nc(-c4ccncc4)cs3)c1=O)C(=O)CC(C)(C)C2 [Compound 132]
48 | < 300 nM | < 300 nM |  |  | CCc1cccc(CC)c1-n1c(CC(C)C)c(C(=O)N2CCNCC2)cc(-c2nc(-c3ccc(Cl)cc3)c(C(=O)OC)s2)c1=O [Compound 387]
49 | 300 to 1000 nM | < 300 nM |  |  | CCc1cccc(CC)c1-n1c(CC(C)C)c(C(=O)N[C@@H](CO)c2ccccc2)cc(-c2nc(-c3ccc(Cl)cc3)cs2)c1=O [Compound 20]
50 | < 300 nM | < 300 nM |  |  | CCc1cccc(CC)c1-n1c(CC(C)C)c(C(=O)N2CCNC(=O)C2)cc(-c2nc(-c3ccc(Cl)cc3)cs2)c1=O [Compound 91]
51 | < 300 nM | < 300 nM |  |  | CC(C)=Cc1c(C(=O)N2CCNCC2)cc(-c2nc(-c3ccc(Cl)cc3)cs2)c(=O)n1-c1ccccc1C(C)(C)C [Compound 372]
52 | 1000 to 5000 nM | 300 to 1000 nM |  |  | CCc1cccc(CC)c1-n1c(CC(C)C)c(C(=O)N[C@H](C)CO)cc(-c2nc(-c3ccc(Cl)cc3)cs2)c1=O [Compound 64]
53 | < 300 nM | < 300 nM |  |  | COc1ccc(OC)c(-n2c(C=C(C)C)c(C(=O)N3CCNCC3)cc(-c3nc(-c4ccc(Cl)cc4)cs3)c2=O)c1 [Compound 380]
54 | 5000 to 20000 nM | 1000 to 5000 nM |  |  | CCc1cccc(CC)c1-n1c(C)c(C(=O)NC2CCCC(O)C2)cc(-c2nc(-c3ccc(Cl)cc3)cs2)c1=O (stereo not drawn) [Compound 18]
